# Measurements reported in patent publication US8895558B2, “Arylpiperazine-containing pyrrole 3-carboxamide derivatives for treating depressive disorders” (Green Cross Corporation, priority 2008, dated 2014).
# Where a name gives a salt, the structure may show the parent alone.
# How the values were obtained:
# [1] = biological target: T1, human recombinant serotonin 5-HT2A receptor (Homo sapiens, UniProt P28223); assay: Binding affinity for serotonin 5-HT2A receptor ([3H]Ketanserin); settings: CHO-K1 expressed receptor, 1 nM [3H]Ketanserin
# T1 construct: purchased PerkinElmer Life and Analytical Sciences, USA; host or cells: CHO-K1
# T1 sequence (P28223 whole entry): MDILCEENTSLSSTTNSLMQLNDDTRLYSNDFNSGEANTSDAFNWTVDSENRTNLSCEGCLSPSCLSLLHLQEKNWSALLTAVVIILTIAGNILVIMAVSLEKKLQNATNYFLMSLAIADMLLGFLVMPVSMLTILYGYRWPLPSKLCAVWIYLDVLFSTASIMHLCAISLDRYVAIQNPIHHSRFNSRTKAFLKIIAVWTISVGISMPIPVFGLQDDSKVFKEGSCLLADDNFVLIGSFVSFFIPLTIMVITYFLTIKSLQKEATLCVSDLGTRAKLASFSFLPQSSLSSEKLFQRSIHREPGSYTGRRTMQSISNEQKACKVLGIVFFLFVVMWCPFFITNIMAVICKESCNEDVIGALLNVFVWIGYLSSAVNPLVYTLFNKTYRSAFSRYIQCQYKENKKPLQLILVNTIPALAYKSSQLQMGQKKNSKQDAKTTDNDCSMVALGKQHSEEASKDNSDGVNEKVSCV
# Method: Receptor binding affinities of the compounds for serotonin receptors were measured by the method described in the literature [Park W K et al., Pharmacol Biochem Behav. 2005, 82(2), 361-372].
# For serotonin 5-HT2A binding, an aliquot of human recombinant serotonin 5-HT2A receptor (PerkinElmer Life and Analytical Sciences, USA) expressed in CHO-K1 cells (5 ug/well) and 1 nM [^3H]Ketanserin (PerkinElmer) were used in the presence of mianserin (20 uM) as nonspecific. The reaction mixture was incubated for 60 min at 27 using 50 mM Tris-HCl (pH 7.4) buffer containing 4 mM CaCl2 and 0.1% ascorbic acid, and harvested through filtermate A glass fiber filter (Wallac, Finland) presoaked in 0.5% polyethyleneimine (PEI) by microbeta filtermate-96 harvester (PerkinElmer) to terminate the reaction, and then washed with ice cold 50 mM Tris-HCl buffer solution (pH 7.4). The filter was then covered with MeltiLex, sealed in a sample bag, dried in an oven. The radioactivity retained in the filter was finally counted using MicroBeta Plus (Wallac).
# (§1) The binding affinity (IC50) of a compound for the receptor was calculated by computerized nonlinear regression analysis (GraphPad Prism Program, San Diego, USA) using 7-8 varied concentrations of the compound run in duplicate tubes.
# [2] = biological target: T2, human recombinant 5-HT2C receptor (Homo sapiens, UniProt P28335); assay: Binding affinity for serotonin 5-HT2C receptor ([3H]Mesulergine); settings: CHO-K1 membranes, 1.3 nM [3H]Mesulergine
# T2 construct: purchased PerkinElmer
# T2 sequence (P28335 33-458): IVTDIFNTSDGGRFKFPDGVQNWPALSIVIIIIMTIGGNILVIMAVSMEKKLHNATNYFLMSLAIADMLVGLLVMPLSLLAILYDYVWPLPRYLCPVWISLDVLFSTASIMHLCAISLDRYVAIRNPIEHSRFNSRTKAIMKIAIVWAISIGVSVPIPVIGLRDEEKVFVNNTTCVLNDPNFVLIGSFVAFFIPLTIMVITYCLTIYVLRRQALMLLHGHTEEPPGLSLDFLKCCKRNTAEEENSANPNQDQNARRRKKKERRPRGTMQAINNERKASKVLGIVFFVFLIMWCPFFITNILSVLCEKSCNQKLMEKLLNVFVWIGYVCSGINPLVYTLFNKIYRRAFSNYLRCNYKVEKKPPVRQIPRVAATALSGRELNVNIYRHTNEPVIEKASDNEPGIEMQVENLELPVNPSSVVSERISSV
# Method: Receptor binding affinities of the compounds for serotonin receptors were measured by the method described in the literature [Park W K et al., Pharmacol Biochem Behav.
# as §1
# Nonspecific binding was determined using 100 uM mianserin. The incubations were performed for 60 min at 27, and these were terminated by rapid filtration through filtermate. A glass fiber filter presoaked in 0.5% PEI.
# [3] = biological target: T3, human serotonin transporter (Homo sapiens, UniProt P31645); assay: Binding affinity for serotonin transporter ([3H]Imipramine); settings: HEK-293 membranes, 2 nM [3H]Imipramine
# T3 construct: purchased PerkinElmer; host or cells: HEK-293
# T3 sequence (P31645 whole entry): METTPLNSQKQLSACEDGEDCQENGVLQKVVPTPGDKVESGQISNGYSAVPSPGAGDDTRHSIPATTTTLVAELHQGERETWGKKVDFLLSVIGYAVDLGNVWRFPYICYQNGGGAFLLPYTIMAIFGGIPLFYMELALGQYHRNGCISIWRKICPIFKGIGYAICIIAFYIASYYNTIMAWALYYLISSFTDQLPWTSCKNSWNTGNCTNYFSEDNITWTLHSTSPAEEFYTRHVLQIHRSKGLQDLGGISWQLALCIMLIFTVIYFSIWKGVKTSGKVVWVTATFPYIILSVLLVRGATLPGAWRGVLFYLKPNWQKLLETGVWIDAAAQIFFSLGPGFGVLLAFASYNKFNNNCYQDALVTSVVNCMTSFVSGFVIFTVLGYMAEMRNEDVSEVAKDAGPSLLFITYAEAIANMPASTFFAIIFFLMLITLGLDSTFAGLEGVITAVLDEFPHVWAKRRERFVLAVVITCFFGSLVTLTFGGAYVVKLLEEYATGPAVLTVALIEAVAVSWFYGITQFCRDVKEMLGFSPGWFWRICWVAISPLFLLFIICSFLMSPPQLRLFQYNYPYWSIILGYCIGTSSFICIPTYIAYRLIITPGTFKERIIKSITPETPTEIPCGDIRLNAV
# Method: For serotonin transporter binding assays, a reaction mixture with a final volume of 0.25 ml was prepared by mixing a test compound, human serotonin transporter membrane expressed in HEK-293 cells (PerkinElmer, 5 ug/well), [^3H]Imipramine (PerkinElmer, 2 nM) and 50 mM Tris-HCl (pH 7.4) buffer containing 120 mM NaCl and 5 mM KCl. The reaction mixture was incubated for 30 min at 27, and harvested through filtermate. A glass fiber filter presoaked in 0.5% PEI with ice cold 50 mM Tris-HCl buffer (pH 7.4) containing 0.9% NaCl.
Compound,IC50 [1],IC50 [2],IC50 [3]
"CCCn1c(-c2ccc(Cl)cc2)cc(C(=O)NCCCN2CCN(c3cccc(C)c3C)CC2)c1C [Example 65, 5-(4-chlorophenyl)-N-(3-(4-(2,3-dimethylphenyl)piperazin-1-yl)propyl)-2-methyl-1-propyl-1H-pyrrole-3-carboxamide hydrochloride]",192 nM,26 nM,131 nM
"Cc1cc(C(=O)NCCCN2CCN(c3cccc(Cl)c3Cl)CC2)c(C)n1-c1ccccc1 [Example 170, N-(3-(4-(2,3-dichlorophenyl)piperazin-1-yl)propyl)-2,5-dimethyl-1-phenyl-1H-pyrrole-3-carboxamide]",132 nM,98 nM,20 nM
"Cc1[nH]c(-c2ccc(Cl)cc2)cc1C(=O)NCCN1CCN(c2cccc(Cl)c2Cl)CC1 [Example 67, 5-(4-chlorophenyl)-N-(2-(4-(2,3-dichlorophenyl)piperazin-1-ypethyl)-2-methyl-1H-pyrrole-3-carboxamide hydrochloride]",100 nM,23 nM,233 nM
"Cc1c(C(=O)NCCCN2CCN(c3cccc(Cl)c3Cl)CC2)cc(-c2ccccc2)n1-c1ccc(F)cc1 [Example 16, N-(3-(4-(2,3-dichlorophenyl)piperazin-1-yl)propyl)-1-(4-fluorophenyl)-2-methyl-5-phenyl-1H-pyrrole-3-carboxamide]",4.1 nM,466 nM,266 nM
"Cc1cccc(N2CCN(CCCNC(=O)c3cc(-c4ccc(Cl)cc4)n(C)c3C)CC2)c1C [Example 61, 5-(4-chlorophenyl)-N-(3-(4-(2,3-dimethylphenyl)piperazin-1-yl)propyl)-1,2-dimethyl-1H-pyrrole-3-carboxamide hydrochloride]",213 nM,129 nM,129 nM
"Cc1c(C(=O)NCCN2CCN(c3cccc(Cl)c3Cl)CC2)cc(C(C)(C)C)n1C [Example 169, 5-tert-butyl-N-(2-(4-(2,3-dichlorophenyl)piperazin-1-yl)ethyl)-1,2-dimethyl-1H-pyrrole-3-carboxamide]",57 nM,,
"Cc1c(C(=O)NCCCN2CCN(c3ccc(Cl)cc3Cl)CC2)cc(-c2ccccc2)n1C [Example 154, N-(3-(4-(2,4-Dichlorophenyl)piperazin-1-yl)propyl)-1,2-dimethyl-5-phenyl-1H-pyrrole-3-carboxamide hydrochloride]",213 nM,349 nM,23 nM
"Cc1c(C(=O)NCCCN2CCN(c3cccc(Cl)c3Cl)CC2)cc(C(C)(C)C)n1C [Example 128, 5-tert-butyl-N-(3-(4-(2,3-dichlorophenyl)piperazin-1-yl)propyl)-1,2-dimethyl-1H-pyrrole-3-carboxamide]",163 nM,1020 nM,375 nM
"CCCn1c(-c2ccccn2)cc(C(=O)NCCCN2CCN(c3cccc(Cl)c3Cl)CC2)c1C [Example 93, N-(3-(4-(2,3-dichlorophenyl)piperazin-1-yl)propyl)-2-methyl-1-propyl-5-(pyridin-2-yl)-1H-pyrrole-3-carboxamide dihydrochloride]",58 nM,639 nM,397 nM
"CCn1c(-c2ccccc2)cc(C(=O)NCCCCN2CCN(c3cccc(C)c3C)CC2)c1C [Example 42, N-(4-(4-(2,3-dimethylphenyl)piperazin-1-yl)butyl)-1-ethyl-2-methyl-5-phenyl-1H-pyrrole-3-carboxamide hydrochloride]",10 nM,17 nM,65 nM
"Cc1c(C(=O)NCCN2CCN(c3cccc(Cl)c3F)CC2)cc(C(C)(C)C)n1C [Example 186, 5-tert-butyl-N-(2-(4-(3-chloro-2-fluorophenyl)piperazin-1-yl)ethyl)-1,2-dimethyl-1H-pyrrole-3-carboxamide]",121 nM,293 nM,
"Cc1cccc(N2CCN(CCCNC(=O)c3cc(-c4ccccc4)n(CC(C)C)c3C)CC2)c1C [Example 27, N-(3-(4-(2,3-dimethylphenyl)piperazin-1-yl)propyl)-1-isobutyl-2-methyl-5-phenyl-1H-pyrrole-3-carboxamide]",897 nM,1300 nM,350 nM
"Cc1c(C(=O)NCCCN2CCN(c3cc(Cl)ccc3Cl)CC2)cc(-c2ccccc2)n1C [Example 156, N-(3-(4-(2,5-Ddichlorophenyl)piperazin-1-yl)propyl)-1,2-dimethyl-5-phenyl-1H-pyrrole-3-carboxamide]",585 nM,806 nM,134 nM
"Cc1cccc(N2CCN(CCCCNC(=O)c3cc(-c4ccccc4)n(C)c3C)CC2)c1C [Example 35, N-(4-(4-(2,3-dimethylphenyl)piperazin-1-yl)butyl)-1,2-dimethyl-5-phenyl-1H-pyrrole-3-carboxamide hydrochloride]",61 nM,61 nM,149 nM
"Cc1c(C(=O)NCCCN2CCN(c3ccc(F)cc3)CC2)cc(-c2ccccc2)n1C [Example 155, N-(3-(4-(4-Fluorophenyl)piperazin-1-yl)propyl)-1,2-dimethyl-5-phenyl-1H-pyrrole-3-carboxamide]",22 nM,493 nM,183 nM
"CCCn1c(-c2ccncc2)cc(C(=O)NCCCN2CCN(c3cccc(Cl)c3Cl)CC2)c1C [Example 107, N-(3-(4-(2,3-dichlorophenyl)piperazin-1-yl)propyl)-2-methyl-1-propyl-5-(pyridin-4-yl)-1H-pyrrole-3-carboxamide]",34 nM,420 nM,78 nM
"O=C(NCCCN1CCN(c2cccc(Cl)c2Cl)CC1)c1c[nH]c(-c2ccccc2)c1 [Example 124, N-(3-(4-(2,3-dichlorophenyl)piperazin-1-yl)propyl)-5-phenyl-1H-pyrrole-3-carboxamide]",23 nM,106 nM,54 nM
"Cc1cccc(N2CCN(CCNC(=O)c3cc(C(C)(C)C)n(C)c3C)CC2)c1C [Example 189, 5-tert-butyl-N-(2-(4-(2,3-dimethylphenyl)piperazin-1-yl)ethyl)-1,2-dimethyl-1H-pyrrole-3-carboxamide]",,227 nM,
"Cc1c(Cl)cccc1N1CCN(CCNC(=O)c2cc(C(C)(C)C)n(C)c2C)CC1 [Example 187, 5-tert-butyl-N-(2-(4-(3-chloro-2-methylphenyl)piperazin-1-yl)ethyl)-1,2-dimethyl-1H-pyrrole-3-carboxamide]",54 nM,210 nM,
"Cc1c(Cl)cccc1N1CCN(CCNC(=O)c2cc(-c3ccccc3)n(C)c2C)CC1 [Example 184, N-(2-(4-(3-chloro-2-methylphenyl)piperazin-1-yl)ethyl)-1,2-dimethyl-5-phenyl-1H-pyrrole-3-carboxamide]",152 nM,233 nM,
"CCn1c(C(C)(C)C)cc(C(=O)NCCCN2CCN(c3cccc(C)c3C)CC2)c1C [Example 190, 5-tert-butyl-N-(3-(4-(2,3-dimethylphenyl)piperazin-1-yl)propyl)-1-ethyl-2-methyl-1H-pyrrole-3-carboxamide]",386 nM,1140 nM,
"Cc1ccc2cccc(N3CCN(CCNC(=O)c4cc(C(C)(C)C)n(C)c4C)CC3)c2n1 [Example 188, 5-tert-butyl-1,2-dimethyl-N-(2-(4-(2-methylquinolin-8-yl)piperazin-1-yl)ethyl)-1H-pyrrole-3-carboxamide]",1480 nM,1500 nM,
"Cc1ccc2cccc(N3CCN(CCNC(=O)c4cc(-c5ccccc5)n(C)c4C)CC3)c2n1 [Example 185, 1,2-dimethyl-N-(2-(4-(2-methylquinolin-8-yl)piperazin-1-yl)ethyl)-5-phenyl-1H-pyrrole-3-carboxamide]",761 nM,554 nM,
